Results reported in US20260078114A1, “COMPOUND USED AS INHIBITOR OF CDK4 KINASE AND USE THEREOF” (TYK MEDICINES, INC., priority 2022, published 2026).
Read-outs that look alike come from different tables or passages of the source.

Assays:
[1] = system: Human breast cancer cell MCF-7; assay: Cellular antiproliferative assay (MTT, 5 days), MCF-7; format: cell-based; conditions: MCF-7 cells, 5 days incubation
Method: (§1) Human breast cancer cell MCF-7, ovarian cancer cell A2780, human mantle cell lymphoma cell JEKO-1. DMEM medium (Bio-Channel), DMSO (dimethyl sulfoxide), MTT (thiazolyl blue), 0.25% EDTA-Tripsin (tryptic digest), 1×PBS (phosphate buffer, PH7.2), 96-well plate (Corning), fetal bovine serum (FBS), 10,000 U/mL penicillin-G/streptomycin, high-speed cryo-centrifuge (EPPENDORF 5810R), enzyme-linked immunoassay (Tecan Spark).
(§2) • A) Tumor cells were cultured in DMEM (high sugar with 10% FBS and 100 U/mL penicillin-G/streptomycin) at 37° C., 5% CO2 and saturated humidity until 80-90% dense. • B) Removed the culture medium from 10 cm Petri dishes; • C) Rinsed the cells once with 10 ml 1×PBS; • D) Added 4 ml 0.25% EDTA-Tripsin into 37° C., 5% CO2 incubator for trypsin digestion for 5 minutes, transferred to 15 ml centrifuge tube, centrifuged at 200 g for 5 minutes, discarded the supernatant to get cell precipitate; • E) Resuspended with 4 ml DMEM medium, counted and adjust to 50,000 cells/ml. • F) Added cell suspension to 96-well plate with 100 μL per well volume and incubated overnight at 37° C., 5% CO2 incubator.
(§3) • A) Preparation of gradient dilution solution of the tested compound: the test compound was configured into 1 mM reservoir solution.
(§4) • A) Taking the cell culture plate and adding 10 μL of 5 mg/ml MTT in the biosafety cabinet; • B) Putting the cell culture plate back into the incubator and continued incubation for 3 hours; • C) Taking the cell culture plate and removing the culture medium, adding 100 μL isopropanol (containing 0.4 mM HCl, 0.1% NP-40), and shaking the bed at room temperature for 30 min; and • D) Determining the absorbance value by selecting 570 nm on a TECAN enzyme-linked immunoassay detector.
(§5) The % Cell Viability was calculated using the following formula:
(§6) [formula] • Lum_HC: 0.1% DMSO control cell reading • Lum_Sample: cell readings with compound added • Lum_LC: Blank medium reading

[2] = system: ovarian cancer cell A2780; assay: Cellular antiproliferative assay (MTT, 5 days), A2780; format: cell-based, human; conditions: A2780 cells, 5 days incubation
Method: as §1, §2, §3, §4, §5, §6

[3] = system: human mantle cell lymphoma cell JEKO-1; assay: Cellular antiproliferative assay (MTT, 5 days), JEKO-1; format: cell-based; conditions: JEKO-1 cells, 5 days incubation
Method: as §1, §2, §3, §4, §5, §6

SMILES | IC50 ([1]; Homo sapiens, MCF7, 120 h) | IC50 ([2]; Homo sapiens, 120 h) | IC50 ([3]; Homo sapiens, 120 h) | IC50 ([1]; read-out: MCF7 IC50) | IC50 [2] | IC50 [3]
CC(C)n1c(N2CC[C@@H](O)C2)nc2c(F)cc(-c3nc(N[C@@H]4CCOC[C@H]4O)ncc3Cl)cc21 [TB-7, (R)-1-(6-(5-chloro-2-(((3S,4R)-3-hydroxytetrahydro-2H-pyran-4-yl)amino)pyrimidin-4-yl)-4-fluoro-1-isopropyl-1H-benzo[d]imidazol-2-yl)pyrrolidin-3-ol] | ≤ 500 nM | ≤ 500 nM | ≤ 500 nM |  |  | 
CC(C)n1c(N2CCOC2=O)nc2c(F)cc(-c3nc(Nc4ccc(S(=O)(=O)NCCN(C)C)cc4)nc4[nH]cnc34)cc21 [TB-70] | ≤ 500 nM | ≤ 500 nM | ≤ 500 nM |  |  | 
CC1CCN(C)c2nc3c(F)cc(-c4nc(NC5CCN(S(C)(=O)=O)CC5)ncc4Cl)cc3n21 (stereo not drawn) [TB-51, 5-chloro-4-(9-fluoro-1,4-dimethyl-1,2,3,4-tetrahydrobenzo[4,5]imidazo[1,2-a]pyrimidin-7-yl)-N-(1-(methylsulfonyl)piperidin-4-yl)pyrimidin-2-amine] | ≤ 500 nM | ≤ 500 nM | ≤ 500 nM |  |  | 
CC(C)n1c(N2CCOC2=O)nc2c(F)cc(-c3nc(NC4CCN(S(C)(=O)=O)CC4)ncc3Cl)cc21 [TB-26] | ≤ 500 nM | ≤ 500 nM | ≤ 500 nM |  |  | 
CC(C)n1c(N(C)C)nc2c(F)cc(-c3nc(N[C@H]4CC[C@H](NS(C)(=O)=O)CC4)ncc3Cl)cc21 [TB-5] | ≤ 500 nM | ≤ 500 nM | ≤ 500 nM |  |  | 
CC(C)n1c(N2CC[C@H](O)C2)nc2c(F)cc(-c3nc(N[C@@H]4CCOC[C@H]4O)ncc3Cl)cc21 [TB-6, (S)-1-(6-(5-chloro-2-(((3S,4R)-3-hydroxytetrahydro-2H-pyran-4-yl)amino)pyrimidin-4-yl)-4-fluoro-1-isopropyl-1H-benzo[d]imidazol-2-yl)pyrrolidin-3-ol] | 500 to 2000 nM | ≤ 500 nM | ≤ 500 nM |  |  | 
CC(C)n1c(N(C)C)nc2c(F)cc(-c3nc(N[C@@H]4CCN(S(C)(=O)=O)C[C@H]4O)ncc3Cl)cc21 [TB-13, (3R,4R)-4-((5-chloro-4-(2-(dimethylamino)-4-fluoro-1-isopropyl-1H-benzo[d]imidazol-6-yl)pyrimidin-2-yl)amino)-1-(methylsulfonyl)piperidin-3-ol] | ≤ 500 nM | ≤ 500 nM | ≤ 500 nM |  |  | 
CC(C)n1c(N2CCCC2)nc2c(F)cc(-c3nc(N[C@@H]4CCOC[C@H]4O)ncc3Cl)cc21 [TB-11, (3S,4R)-4-((5-chloro-4-(4-fluoro-1-isopropyl-2-(pyrrolidin-1-yl)-1H-benzo[d]imidazol-6-yl)pyrimidin-2-yl)amino)tetrahydro-2H-pyran-3-ol] | ≤ 500 nM | ≤ 500 nM | ≤ 500 nM |  |  | 
CN1CCCn2c1nc1c(F)cc(-c3nc(NC4CCOCC4)ncc3Cl)cc12 [TB-132, 5-chloro-4-(9-fluoro-1-methyl-1,2,3,4-tetrahydrobenzo[4,5]imidazo[1,2-a]pyrimidin-7-yl)-N-(tetrahydro-2H-pyran-4-yl)pyrimidin-2-amine] | 500 to 2000 nM | ≤ 500 nM | ≤ 500 nM |  |  | 
CC(C)n1c(N(C)C)nc2c(F)cc(-c3nc(Nc4ccc(N5CCNCC5)cn4)ncc3Cl)cc21 [TB-18, 6-(5-chloro-2-((5-(piperazin-1-yl)pyridin-2-yl)amino)pyrimidin-4-yl)-4-fluoro-1-isopropyl-N,N-dimethyl-1H-benzo[d]imidazol-2-amine] | ≤ 500 nM | ≤ 500 nM | ≤ 500 nM |  |  | 
CC(C)n1c(N(C)C)nc2c(F)cc(-c3nc(NC4CCN(S(C)(=O)=O)CC4)ncc3Cl)cc21 [TB-3, 6-(5-chloro-2-((1-(methylsulfonyl)piperidin-4-yl)amino)pyrimidin-4-yl)-4-fluoro-1-isopropyl-N,N-dimethyl-1H-benzo[d]imidazol-2-amine] | ≤ 500 nM | ≤ 500 nM | ≤ 500 nM |  |  | 
C[C@H]1C[C@H](C)n2c(nc3c(F)cc(-c4nc(N[C@@H]5CCOC[C@H]5O)ncc4Cl)cc32)N1C [TB-153] | ≤ 500 nM | ≤ 500 nM | ≤ 500 nM |  |  | 
CC(C)n1c(N2CC(O)C2)nc2c(F)cc(-c3nc(N[C@@H]4CCOC[C@H]4O)ncc3Cl)cc21 [TB-14, 1-(6-(5-chloro-2-(((38,4R)-3-hydroxytetrahydro-2H-pyran-4-yl)amino)pyrimidin-4-yl)-4-fluoro-1-isopropyl-1H-benzo[d]imidazol-2-yl)azetidin-3-ol] | ≤ 500 nM | ≤ 500 nM | ≤ 500 nM |  |  | 
CC(C)n1c(N(C)C)nc2c(F)cc(-c3nc(N[C@@H]4CCOC[C@H]4O)ncc3Cl)cc21 [TB-1] | ≤ 500 nM | ≤ 500 nM | ≤ 500 nM |  |  | 
CC1(C)CSc2nc3c(F)cc(-c4nc(N[C@@H]5CCOC[C@H]5O)ncc4Cl)cc3n2C1 [TB-146] |  |  |  | ≤ 500 nM | ≤ 500 nM | ≤ 500 nM
CC1CCN(C)c2nc3c(F)cc(-c4nc(N[C@@H]5CCOC[C@H]5O)ncc4Cl)cc3n21 (mixture of isomers) [TB-44, (3S,4R)-4-((5-chloro-4-(9-fluoro-1,4-dimethyl-1,2,3,4-tetrahydrobenzo[4,5]imidazo[1,2-a]pyrimidin-7-yl)pyrimidin-2-yl)amino)tetrahydro-2H-pyran-3-ol] | ≤ 500 nM | ≤ 500 nM | ≤ 500 nM |  |  | 
COc1cc(N2CCNCC2)ccc1Nc1ncc(Cl)c(-c2cc(F)c3nc(N(C)C)n(C(C)C)c3c2)n1 [TB-17, 6-(5-chloro-2-((2-methoxy-4-(piperazin-1-yl)phenyl)amino)pyrimidin-4-yl)-4-fluoro-1-isopropyl-N,N-dimethyl-1H-benzo[d]imidazol-2-amine] | 500 to 2000 nM | 500 to 2000 nM | 500 to 2000 nM |  |  | 
CN1CCCn2c1nc1c(F)cc(-c3nc(N[C@@H]4CCOC[C@H]4O)ncc3F)cc12 [TB-42, (3S,4R)-4-((5-fluoro-4-(9-fluoro-1-methyl-1,2,3,4-tetrahydrobenzo[4,5]imidazo[1,2-a]pyrimidin-7-yl)pyrimidin-2-yl)amino)tetrahydro-2H-pyran-3-ol] | ≤ 500 nM | ≤ 500 nM | ≤ 500 nM |  |  | 
COCc1cc(Nc2ncc(Cl)c(-c3cc(F)c4nc5n(c4c3)CCCN5C)n2)ccn1 [TB-130, 5-chloro-4-(9-fluoro-1-methyl-1,2,3,4-tetrahydrobenzo[4,5]imidazo[1,2-a]pyrimidin-7-yl)-N-(2-(methoxymethyl)pyridin-4-yl)pyrimidin-2-amine] | ≤ 500 nM | ≤ 500 nM | ≤ 500 nM |  |  | 
C[C@H]1CCN(C)c2nc3c(F)cc(-c4cc(N[C@@H]5CCOC[C@H]5O)ncc4Cl)cc3n21 [TB-149] |  |  |  | ≤ 500 nM | ≤ 500 nM | ≤ 500 nM
CNS(=O)(=O)N1CCC(Nc2ncc(Cl)c(-c3cc(F)c4nc5n(c4c3)CCCN5C)n2)CC1 [TB-144, 4-((5-chloro-4-(9-fluoro-1-methyl-1,2,3,4-tetrahydrobenzo[4,5]imidazo[1,2-a]pyrimidin-7-yl)pyrimidin-2-yl)amino)-N-methylpiperidine-1-sulfonamide] | ≤ 500 nM | ≤ 500 nM | ≤ 500 nM |  |  | 
COC(=O)N(C)c1nc2c(F)cc(-c3nc(N[C@@H]4CCOC[C@H]4O)ncc3Cl)cc2n1C(C)C [TB-8, methyl (6-(5-chloro-2-(((3S,4R)-3-hydroxytetrahydro-2H-pyran-4-yl)amino)pyrimidin-4-yl)-4-fluoro-1-isopropyl-1H-benzo[d]imidazol-2-yl)(methyl)carbamate] | 500 to 2000 nM | ≤ 500 nM | ≤ 500 nM |  |  | 
CC(C)n1c(N2CCOC2=O)nc2c(F)cc(-c3nc(NC4CCN(S(=O)(=O)C5CC5)CC4)ncc3Cl)cc21 [TB-33] | ≤ 500 nM | ≤ 500 nM | ≤ 500 nM |  |  | 
CCS(=O)(=O)N1CCC(Nc2ncc(Cl)c(-c3cc(F)c4nc5n(c4c3)CCCN5C)n2)CC1 [TB-143, 5-chloro-N-(1-(ethylsulfonyl)piperidin-4-yl)-4-(9-fluoro-1-methyl-1,2,3,4-tetrahydrobenzo[4,5]imidazo[1,2-a]pyrimidin-7-yl)pyrimidin-2-amina] | ≤ 500 nM | ≤ 500 nM | ≤ 500 nM |  |  | 
CN1CCn2c1nc1c(F)cc(-c3nc(NC4CCN(S(C)(=O)=O)CC4)ncc3Cl)cc12 [TB-52, 5-chloro-4-(8-fluoro-1-methyl-2,3-dihydro-1H-benzo[d]imidazo[1,2-a]imidazol-6-yl)-N-(1-(methylsulfonyl)piperidin-4-yl)pyrimidin-2-amine] | ≤ 500 nM | ≤ 500 nM | ≤ 500 nM |  |  | 
CC(C)n1c(N2CCOC2=O)nc2c(F)cc(-c3nc(N[C@@H]4CCOC[C@H]4O)ncc3Cl)cc21 [TA-55] | ≤ 500 nM | ≤ 500 nM | ≤ 500 nM |  |  | 
